How the values were obtained:
CHO cells = assay: FD-based AFM with virus-functionalized tip on living CHO cells (cocultured with Lec2); type: cell-based; conditions: 1 mM, same area rescanned, FIG. 14i-l
Method: NHS-PEG27-acetal linkers were used to functionalize AFM tips as described (Gruber. Crosslinkers and Protocols for AFM Tip Functionalization. https://wwwjku.at/institut-fuer-biophysik/forschung/linked, 2018; Wildling et al. Linking of sensor molecules with amino groups to aminofunctionalized AFM tips. Bioconjug. Chem. 2011, vol. 22, 1239-1248). AFM tips (PFQNM-LC and MSCT probes, Bruker) were immersed in chloroform for 10 min, rinsed with ethanol, dried with a stream of filtered nitrogen, cleaned for 10 min using an ultraviolet radiation and ozone (UV-0) cleaner (Jetlight), and immersed overnight in an ethanolamine solution (3.3 g of ethanolamine hydrochloride in 6.6 mL of DMSO). […]
Correlative images were acquired on an AFM (Bioscope Catalyst and Bioscope Resolve, Bruker) operated in the PeakForce QNM mode (Nanoscope software v9.2) to conduct FD-based AFM and coupled to an inverted epifluorescence microscope (Zeiss Observer Z.1) as described (Newton et al. 2017, supra; Knoops et al. Specific Interactions Measured by AFM on Living Cells between Peroxiredoxin-5 and TLR4: Relevance for Mechanisms of Innate Immunity. Cell chemical biology 2018, vol. 25, 550-559, e553). […] Overview images of cell surfaces (20-30 μm^2) were recorded at imaging forces of ˜500 pN using PFQNM-LC probes (Bruker) having tip lengths of 17 μm, tip radii of 65 nm, and opening angles of 15°. […]

[1] = system: cocultured CHO-JAM-A and Lec2-JAM-A cells; assay: Single particle tracking by dynamic confocal microscopy; type: cell-based
Method: A coculture of Lec2-JAM-A mCherry and CHO-JAM-A cells was seeded onto a 47-mm glass-bottomed petri dish (WillCo Wells) 1 or 2 d before the experiment to ensure formation of a confluent monolayer on the day of the experiment. Cells were imaged by laser scanning confocal microscopy using a Zeiss LSM 880 microscope with a 561 nm laser for mCherry and a 488 nm laser for Alexa488 and a 40× oil objective (NA=0.95). All experiments were conducted at room temperature with cells maintained in Ham's F12 culture medium and a gas mixture of synthetic air with 5% CO2 at 95% relative humidity that was infused at 0.1 L min^−1 into the microscopy chamber using a gas humidifier membrane (PermSelect silicone). The humidity was controlled using a humidity sensor (Sensirion). To ensure virus binding (and not internalization), the cells were placed on ice for 30 min before starting the experiment. After finding an area in which both cell types were adjacent (guided by fluorescence), Alexa488-labelled T3SA+ or T3SA− viruses (10^12 particles/mL) diluted in either F12 Ham's culture medium or 1 mM Neu5Ac solution (on ice) were added to the living cells. The fluorescent signal from both dyes (mCherry and Alexa488) as well as the signal from the PMT channel was recorded for a ˜30 min interval immediately after virus injection at a frame-rate of one image every 13.32 seconds. During recording, the focus was kept constant on the upper surface of cells. Fluorescence images were exported as 12-bit TIFF files, merged into a movie, and further processed using ImageJ (National Institutes of Health, Bethesda). Trajectories were harvested and analyzed using MTrackJ, an ImageJ plugin to track moving viral particles in the movie and obtain track statistics. The latter were further processed using Origin.

## CC(=O)N[C@H]1[C@H]([C@H](O)[C@H](O)CO)OC(O)(C(=O)O)C[C@@H]1O (stereo partly shown) [Neu5Ac, N-acetylneuraminic acid]
CHO cells
  adhesion events of T3SA+ after injection of blocking glycan: significant reduction of adhesion events
[1]; 1 mM free SA, FIG. 10g
  number of T3SA+ particles bound to CHO-JAM-A cells: significantly increased
[1]; 1 mM glycan injected with viral particles, FIG. 10f
  diffusion potential of T3SA+ particles on the cell surface: significant decrease of their diffusion potential
[1]; 1 mM, FIG. 10g
  effect of free SA on diffusion and bound particles of T3SA−: this effect was not observed

Source: patent US20220111034A1, “VIRUS COMPOSITIONS” (priority 2019, published 2022)
